# Earlier results in US9789071B2 (G2B Pharma Inc., priority 2012, dated 2017).
# Experiments:
# [1] = IM injection
# [2] = dogs
# [3] = dogs; remark: listed apart in the source
# [4] = normal human subjects, IM epinephrine injection
# [5] = oral route
# [6] = sublingual doses 5 to 40 mg, as the bitartrate salt
# [7] = nasal mucosa, needleless high-pressure injection
structure (smiles),measurement,setting,value
CNC[C@H](O)c1ccc(O)c(O)c1 [epinephrine],onset of action (Tmax),[1],3 to 8 min
same,time peak systolic pressure was maintained,[2],about 180 seconds
same,peak systolic pressure,[2]; at 60 seconds,200 % of baseline
same,peak epinephrine levels in the blood,[2]; [7],~20 ng/mL
same,time of peak (Tmax) epinephrine levels in the blood,[2]; [7],0.25 min
same,greatest epinephrine plasma concentrations,"[3]; CPR, 7.5 mg/kg/nostril epinephrine after 0.25 mg/kg/nostril intranasal phentolamine, 1% taurodeoxycholic acid","~1,400 ng/mL"
same,absolute bioavailability,"[3]; intranasal, with 1% taurodeoxycholic acid",quite low
same,Tmax,[4],69 ± 19 min
same,bioavailability,[5],negligible
same,plasma concentrations,[6],equivalent to IM injection
